Values quoted from earlier work, collected in patent publication US20080200492A1, “METHODS FOR THE TREATMENT OF ALCOHOL ABUSE, ADDICTION AND DEPENDENCY” (priority 2006, published 2008).

Test system: golden hamster
Details: cited from earlier work

In the case of `O=c1c(-c2ccc(O)cc2)coc2cc(O[C@@H]3O[C@H](CO)[C@@H](O)[C@H](O)[C@H]3O)ccc12` [Daidzin], the “Alcohol drinking, water or food intake” value is listed as “decreases alcohol drinking in the golden hamster, without producing a decrease in water or food intake”.
